Reference: PubChem BioAssay AID2060909 (Molecular Pharmacology Branch, DTP, NCI, 2025)

System: 362531-283-R-J2-PDC complex spheroid viability
Assay: Anticancer human tumor 362531-283-R-J2-PDC patient-derived colon adenocarcinoma cell line growth inhibition [RAS]
Conditions: for IC50: curve of first compound; for viability, T/C: stronger effect = lower value
Description: RAS pathway inhibitors in Combinations in Complex Spheroids
A high-throughput screen of multi-cell type tumor spheroids was designed to identify active combinations of RAS pathway inhibitors and targeted small molecules. Complex spheroids include a stromal component modeled by human endothelial cells (HUVEC) and fibroblasts modeled by human mesenchymal stem cells (MSCs). The concentration ranges selected for each drug and investigational agent were based upon clinically achievable concentrations if the clinical Cmax of the agent was known.
Compounds. The drugs and investigational agents: abemaciclib (NSC768073), cobimetinib (NSC768068), divarasib (GDC6063, NSC841802), docetaxel (NSC628503), GDC-1971 (RLY-1971, NSC841576), gemcitabine (NSC613327), inavolisib (NSC800729), ipatasertib (NSC767898), KB-0742 (NSC834161), MRTX-1133 (NSC836407), osimertinib (NSC779217), RMC-4630 (NSC839698), RMC-6236 (NSC851965), RMC-6291 (NSC852671), Ro-3306 (NSC812927), sapanisertib (NSC764658), SN-38 (NSC673596), staurosporine (NSC755774), SY5609 (NSC837396), and tovorafenib (DAY101, NSC766906), were obtained from the National Cancer Institute (NCI) Developmental Therapeutics Program Chemical Repository. The FDA-approved anticancer drug set is available from the NCI Developmental Therapeutics Program. […] The stock solutions were prepared in dimethyl sulfoxide (DMSO, Sigma-Aldrich, St. Louis, MO, cat. D2650) at 800-fold the tested concentration and stored at -70 degrees C prior to their use. All drugs and investigational agents were tested over a range starting from a high concentration at or near the clinical Cmax and decreasing in half-log increments. If the clinical Cmax for an agent had not been determined, the highest concentration tested was 10 microM.
Cell Culture. All cells were maintained in an incubator at 37 degrees C and 5% CO2 with 95% humidity. The PDC lines were cultured according to standard operating procedures established by the NCI PDMR. All PDCs were thawed and cultured in Matrigel-coated flasks prepared with a working solution of 1X Ham's F-12 nutrient mix, without supplementation (Invitrogen, Waltham, MA, cat. 11765054), 100 U/mL penicillin-streptomycin (Invitrogen, cat. 15140122), and 2.5% Matrigel (Corning Inc., Corning, NY, cat. 354248) for the first three passages. The 362531-283-R-J2-PDC and 782815-120-R-J1-PDC lines were cultured in 6C/Colon 1B media, which includes advanced DMEM/F-12 (Thermo Fisher Scientific, cat. 12634028), 10 mM HEPES (Thermo Fisher Scientific, cat. 15630080), 1X GlutaMAX supplement (Thermo Fisher Scientific, cat. 35050061), 0.1 mg/mL primocin (InvivoGen, San Diego, CA, cat. ant-pm-2), 10% defined fetal bovine serum, heat inactivated (HyClone Laboratories Inc., Logan, UT, cat. SH30070.03HI), 50% L-WRN conditioned media (ATCC, cat. CRL-3276), 1.25 mM N-Acetyl-L-cysteine (Sigma-Aldrich, cat. A9165), 10 mM nicotinamide (Sigma-Aldrich, cat. N0636), 1X B-27 supplement (Thermo Fisher Scientific, cat. 17504044), 1X N-2 supplement (Thermo Fisher Scientific, cat. 17502048), 50 ng/mL human EGF (Thermo Fisher Scientific, cat. PHG0311), and 10 microM Y-27632 dihydrochloride (Tocris Bioscience, cat. 1254). The K12877-001-R-J1-PDC line was cultured in 6I media, which includes all 6C/Colon 1B media plus 10 ng/mL human FGF-10 (PeproTech, cat. 100-26), 1 ng/mL human FGF-2 (PeproTech, cat. 100-18B), 1 µM prostaglandin E2 (Tocris Bioscience, cat. 2296), […] hydrocortisone (Sigma-Aldrich, cat. H4001), and […] bovine insulin (Sigma-Aldrich, cat. I6634). The K86415-001-R-J1-PDC line was cultured in 6D media, which includes all 6C/Colon 1B media components minus the L-WRN conditioned media. The 485176-168-R4-J1-PDC was cultured in PANC media, which includes all 6C/Colon 1B media plus 100 ng/mL human FGF-10 (PeproTech, cat. 100-26), 500 nM SB-431542 (Selleckchem, cat. S1067), and 10 nM gastrin (Tocris Bioscience, cat. 3006). […]
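Further: spheroids exposed to the agents for 7 days before readout.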
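Wherever viability, T/C is given: luminescence viability as percent of DMSO vehicle control wells.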

SMILES: CC1(C)CCC(Nc2ncc(C(F)(F)F)c(-c3c[nH]c4c(P(C)(C)=O)c(C#N)ccc34)n2)CN1 (centres undefined) + CCn1c(-c2cc(N3CCN(C)CC3)cnc2C(C)OC)c2c3cc(ccc31)-c1csc(n1)CC(NC(=O)C1CC1C)C(=O)N1CCCC(N1)C(=O)OCC(C)(C)C2
- IC50 (second compound 0.000949 µM): > 300 nM
- IC50 (second compound 0.003 µM): > 300 nM
- IC50 (second compound 0.00949 µM): > 300 nM
- IC50 (second compound 0.03 µM): > 300 nM
- IC50 (second compound 0.0949 µM): > 300 nM
- IC50 (second compound 0.3 µM): < 0.949 nM
- viability, T/C (second compound 0.000949 µM, first compound 0.000949 µM): 104%
- viability, T/C (second compound 0.000949 µM, first compound 0.003 µM): 97.3%
- viability, T/C (second compound 0.000949 µM, first compound 0.00949 µM): 100%
- viability, T/C (second compound 0.000949 µM, first compound 0.03 µM): 99.7%
- viability, T/C (second compound 0.000949 µM, first compound 0.0949 µM): 93%
- viability, T/C (second compound 0.000949 µM, first compound 0.3 µM): 95.1%
- viability, T/C (second compound 0.003 µM, first compound 0.000949 µM): 104%
- viability, T/C (second compound 0.003 µM, first compound 0.003 µM): 102%
- viability, T/C (second compound 0.003 µM, first compound 0.00949 µM): 104%
- viability, T/C (second compound 0.003 µM, first compound 0.03 µM): 97.1%
- viability, T/C (second compound 0.003 µM, first compound 0.0949 µM): 101%
- viability, T/C (second compound 0.003 µM, first compound 0.3 µM): 95.3%
- viability, T/C (second compound 0.00949 µM, first compound 0.000949 µM): 103%
- viability, T/C (second compound 0.00949 µM, first compound 0.003 µM): 110%
- viability, T/C (second compound 0.00949 µM, first compound 0.00949 µM): 101%
- viability, T/C (second compound 0.00949 µM, first compound 0.03 µM): 100%
- viability, T/C (second compound 0.00949 µM, first compound 0.0949 µM): 105%
- viability, T/C (second compound 0.00949 µM, first compound 0.3 µM): 104%
- viability, T/C (second compound 0.03 µM, first compound 0.000949 µM): 101%
- viability, T/C (second compound 0.03 µM, first compound 0.003 µM): 107%
- viability, T/C (second compound 0.03 µM, first compound 0.00949 µM): 93.7%
- viability, T/C (second compound 0.03 µM, first compound 0.03 µM): 92.9%
- viability, T/C (second compound 0.03 µM, first compound 0.0949 µM): 98.6%
- viability, T/C (second compound 0.03 µM, first compound 0.3 µM): 98.5%
- viability, T/C (second compound 0.0949 µM, first compound 0.000949 µM): 85%
- viability, T/C (second compound 0.0949 µM, first compound 0.003 µM): 82%
- viability, T/C (second compound 0.0949 µM, first compound 0.00949 µM): 75.9%
- viability, T/C (second compound 0.0949 µM, first compound 0.03 µM): 82.2%
- viability, T/C (second compound 0.0949 µM, first compound 0.0949 µM): 82.2%
- viability, T/C (second compound 0.0949 µM, first compound 0.3 µM): 102%
- viability, T/C (second compound 0.3 µM, first compound 0.000949 µM): 40.9%
- viability, T/C (second compound 0.3 µM, first compound 0.003 µM): 52%
- viability, T/C (second compound 0.3 µM, first compound 0.00949 µM): 60.3%
- viability, T/C (second compound 0.3 µM, first compound 0.03 µM): 58.7%
- viability, T/C (second compound 0.3 µM, first compound 0.0949 µM): 68.5%
- viability, T/C (second compound 0.3 µM, first compound 0.3 µM): 76.8%

SMILES: O=C(c1ccc(F)c(F)c1Nc1ccc(I)cc1F)N1CC(O)([C@@H]2CCCCN2)C1 + CCn1c(-c2cc(N3CCN(C)CC3)cnc2C(C)OC)c2c3cc(ccc31)-c1csc(n1)CC(NC(=O)C1CC1C)C(=O)N1CCCC(N1)C(=O)OCC(C)(C)C2
- IC50 (second compound 0.000949 µM): 523 nM
- IC50 (second compound 0.003 µM): 514 nM
- IC50 (second compound 0.00949 µM): 454 nM
- IC50 (second compound 0.03 µM): 447 nM
- IC50 (second compound 0.0949 µM): 72 nM
- IC50 (second compound 0.3 µM): < 3.16 nM
- viability, T/C (second compound 0.000949 µM, first compound 0.00316 µM): 93%
- viability, T/C (second compound 0.000949 µM, first compound 0.01 µM): 105%
- viability, T/C (second compound 0.000949 µM, first compound 0.0316 µM): 85.6%
- viability, T/C (second compound 0.000949 µM, first compound 0.1 µM): 80.9%
- viability, T/C (second compound 0.000949 µM, first compound 0.316 µM): 74.8%
- viability, T/C (second compound 0.000949 µM, first compound 1 µM): 23.1%
- viability, T/C (second compound 0.003 µM, first compound 0.00316 µM): 87.8%
- viability, T/C (second compound 0.003 µM, first compound 0.01 µM): 101%
- viability, T/C (second compound 0.003 µM, first compound 0.0316 µM): 92%
- viability, T/C (second compound 0.003 µM, first compound 0.1 µM): 76.4%
- viability, T/C (second compound 0.003 µM, first compound 0.316 µM): 76%
- viability, T/C (second compound 0.003 µM, first compound 1 µM): 20.3%
- viability, T/C (second compound 0.00949 µM, first compound 0.00316 µM): 98.4%
- viability, T/C (second compound 0.00949 µM, first compound 0.01 µM): 94.7%
- viability, T/C (second compound 0.00949 µM, first compound 0.0316 µM): 81.4%
- viability, T/C (second compound 0.00949 µM, first compound 0.1 µM): 82.6%
- viability, T/C (second compound 0.00949 µM, first compound 0.316 µM): 73.6%
- viability, T/C (second compound 0.00949 µM, first compound 1 µM): 4.71%
- viability, T/C (second compound 0.03 µM, first compound 0.00316 µM): 87.4%
- viability, T/C (second compound 0.03 µM, first compound 0.01 µM): 75.7%
- viability, T/C (second compound 0.03 µM, first compound 0.0316 µM): 82%
- viability, T/C (second compound 0.03 µM, first compound 0.1 µM): 75.4%
- viability, T/C (second compound 0.03 µM, first compound 0.316 µM): 69.1%
- viability, T/C (second compound 0.03 µM, first compound 1 µM): 5.79%
- viability, T/C (second compound 0.0949 µM, first compound 0.00316 µM): 72.8%
- viability, T/C (second compound 0.0949 µM, first compound 0.01 µM): 96.2%
- viability, T/C (second compound 0.0949 µM, first compound 0.0316 µM): 58.1%
- viability, T/C (second compound 0.0949 µM, first compound 0.1 µM): 49.3%
- viability, T/C (second compound 0.0949 µM, first compound 0.316 µM): 3.89%
- viability, T/C (second compound 0.0949 µM, first compound 1 µM): 3.06%
- viability, T/C (second compound 0.3 µM, first compound 0.00316 µM): 28.9%
- viability, T/C (second compound 0.3 µM, first compound 0.01 µM): 28.4%
- viability, T/C (second compound 0.3 µM, first compound 0.0316 µM): 15.1%
- viability, T/C (second compound 0.3 µM, first compound 0.1 µM): 3.3%
- viability, T/C (second compound 0.3 µM, first compound 0.316 µM): 3.48%
- viability, T/C (second compound 0.3 µM, first compound 1 µM): 3.15%
